Results on one molecule are retold here after patent US5254566A, “Decahydroquinoline compounds” (Roussel Uclaf, priority 1991, dated 1993).

The subject of assay [1] is Plasmodium falciparum FZ strain resistant to chloroquine. Put plainly: Anti-paludal activity in vitro: inhibition of proliferation in continuous culture, FZ strain. Conditions: R3 type resistance, parasitemia relative to controls, incubation 48 hours, RPS 10 medium, 5% CO2, read-out: ED50 (FZ strain resistant to chloroquine). The class given is cell-based. Here is the method:
(§1) 2) Test for determining the anti-paludal activity in vitro
(§2) The culturing of Plasmodium falciparum "in vitro" was carried out in cupulas on polystyrene plates used for tissue culture. It was carried out at 37° C. in a CO2 oven by the technique of TRAGER et al (1976-1978) on a modified RPMI 1640 medium (AZOULAY et al 1983) buffered with a mixture of HEPES buffer (40 m.moles/l), glucose (4 g/l) and 10 percent human serum. The anti-malarial activity "in vitro" of the different products tested was studied on two different strains of Plasmodium falciparum, namely an FCC2 strain sensitive to chloroquine and an FZ strain resistant to chloroquine (R3 type resistance). […]
(§3) 0.7 ml of the globular suspension was deposited in each cupula and each concentration of chosen product was tested on 3 cupulas. […] After an incubation time of 48 hours without renewing the medium in a steam chest with a CO2 content of 5%, the parasitemia content of each cupula was evaluated.
(§4) To do this, the canisters were removed from the steam chest and were left for 10 minutes at rest under a hood with laminar flux. […] On these crush preparations, fixed and colored, the different forms of the parasite were counted for 2000 to 3000 red blood corpuscles per plate. The results were expressed as the percentage of proliferation relative to the controls. […]

In assay [2] the test system is Plasmodium falciparum FCC2 strain sensitive to chloroquine. Put plainly: Anti-paludal activity in vitro: inhibition of proliferation in continuous culture, FCC2 strain. The class given is cell-based. Conditions: parasitemia relative to controls, incubation 48 hours, RPS 10 medium, 5% CO2, read-out: ED50 (FCC2 strain sensitive to chloroquine). Here is the method:
as §1, §2, §3, §4

Structures can show the parent of a compound that is named as a salt.

Turning to `Clc1ccc2c(N3CCC[C@@H]4CCC[C@@H](N5CCCC5)[C@@H]43)ccnc2c1` (relative stereo) [Example 2, (4a α, 8α, 8aα) (±) 1-(7-chloro-4-quinolinyl)-decahydro-8-(1-pyrrolidinyl)-quinoline dihydrochloride], the values for the IC50 in assay [1] and in assay [2] were 0.34 µg/mL and 0.35 µg/mL, respectively.
